We go through 1 compound from paper PMC10667598 (Scientific Reports, 2023).

In this assay the target is T1, VcCBP (Vibrio cholerae, UniProt Q9KUA3).
T1 construct: gene VC_0620

pKd: −log10 of the molar value.

T1 sequence (Q9KUA3 28-556 limits assumed): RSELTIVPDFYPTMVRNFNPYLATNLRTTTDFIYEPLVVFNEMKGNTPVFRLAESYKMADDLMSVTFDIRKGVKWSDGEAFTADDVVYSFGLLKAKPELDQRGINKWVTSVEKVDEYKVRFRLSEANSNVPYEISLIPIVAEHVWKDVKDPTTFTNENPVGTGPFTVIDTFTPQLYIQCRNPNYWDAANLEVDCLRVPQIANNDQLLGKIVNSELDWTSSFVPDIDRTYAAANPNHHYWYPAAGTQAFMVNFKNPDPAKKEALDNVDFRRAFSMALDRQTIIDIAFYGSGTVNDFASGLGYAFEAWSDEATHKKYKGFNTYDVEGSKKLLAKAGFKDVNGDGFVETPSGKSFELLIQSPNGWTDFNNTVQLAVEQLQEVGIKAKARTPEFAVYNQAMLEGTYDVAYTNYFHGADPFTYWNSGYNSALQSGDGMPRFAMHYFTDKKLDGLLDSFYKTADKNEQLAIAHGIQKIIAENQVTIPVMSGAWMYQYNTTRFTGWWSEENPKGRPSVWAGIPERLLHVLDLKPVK

By pKd is commonly meant the negative decadic logarithm of the Kd, by convention in mol/L. For `CC(=O)N[C@H]1[C@H](O[C@H]2[C@H](O)[C@@H](NC(C)=O)C(O)O[C@@H]2CO)O[C@H](CO)[C@@H](O)[C@@H]1O` (stereo partly shown) [(GlcNAc)2], the pKd is 6.61.
